# Results published in ChEMBL document CHEMBL3885881, “DrugMatrix”.
# Organism: Rattus norvegicus
# Test: DrugMatrix - Regimen: Daily Repeat
# Assay type: toxicity, organism-based, Sprague-Dawley
# Set-up: regimen Daily Repeat, gender Male, age 6-8 weeks
# Details: in vivo, po, route oral GAVAGE, vehicle .5 % CMC; for ABSOLUTE BASOPHIL / ABSOLUTE EOSINOPHIL / ABSOLUTE LYMPHOCYTE / ABSOLUTE MONOCYTE / ABSOLUTE SEGMENTED NEUTROPHIL / BASOPHIL / EOSINOPHIL / ERYTHROCYTE COUNT / HEMATOCRIT / HEMOGLOBIN / LEUKOCYTE COUNT / LYMPHOCYTE / MEAN CORPUSCULAR HEMOGLOBIN / MEAN CORPUSCULAR HEMOGLOBIN CONCENTRATION / MEAN CORPUSCULAR VOLUME / MONOCYTE / NEUTROPHIL / NUCLEATED RED BLOOD CELLS / PLATELET COUNT: tissue Blood; for ALANINE AMINOTRANSFERASE / ALBUMIN / ALKALINE PHOSPHATASE / ASPARTATE AMINOTRANSFERASE / BLOOD UREA NITROGEN / CARBON DIOXIDE / CHLORIDE / CHOLESTEROL / CREATINE PHOSPHOKINASE / CREATININE / GLUCOSE / LACTATE DEHYDROGENASE / LIPASE / PHOSPHORUS / POTASSIUM / SODIUM / TOTAL BILIRUBIN / TOTAL PROTEIN / URIC ACID: tissue Plasma
# [1] = 100 mg/kg, 120 h, dose level Low, time 5 day
# [2] = 501 mg/kg, 72 h, dose level High, time 3 day
# [3] = 501 mg/kg, 120 h, dose level High, time 5 day
compound,measurement,setting,value
CCc1ccc(C(=O)C(C)CN2CCCCC2)cc1 (centres undefined) [EPERISONE],ABSOLUTE BASOPHIL,[1],0 CELLS/uL
same,ABSOLUTE EOSINOPHIL,[1],0 CELLS/uL
same,ABSOLUTE LYMPHOCYTE,[1],13749 CELLS/uL
same,ABSOLUTE MONOCYTE,[1],246.33 CELLS/uL
same,ABSOLUTE SEGMENTED NEUTROPHIL,[1],1338 CELLS/uL
same,BASOPHIL,[1],0%
same,EOSINOPHIL,[1],0%
same,ERYTHROCYTE COUNT,[1],5.46 x10E6/uL
same,HEMATOCRIT,[1],34.27%
same,HEMOGLOBIN,[1],13.2 G/DL
same,LEUKOCYTE COUNT,[1],15.33 x10E3/uL
same,LYMPHOCYTE,[1],89.67%
same,MEAN CORPUSCULAR HEMOGLOBIN,[1],24.17 pg
same,MEAN CORPUSCULAR HEMOGLOBIN CONCENTRATION,[1],38.53 G/DL
same,MEAN CORPUSCULAR VOLUME,[1],62.83 fL
same,MONOCYTE,[1],1.67%
same,NEUTROPHIL,[1],8.67%
same,NUCLEATED RED BLOOD CELLS,[1],0 /100WBC
same,PLATELET COUNT,[1],1278.33 x10E3/uL
same,ALANINE AMINOTRANSFERASE,[1],50 u/L
same,ALBUMIN,[1],4.27 G/DL
same,ALKALINE PHOSPHATASE,[1],325.67 u/L
same,ASPARTATE AMINOTRANSFERASE,[1],101.33 u/L
same,BLOOD UREA NITROGEN,[1],17.33 mg/dL
same,CARBON DIOXIDE,[1],25.33 mmol/L
same,CHLORIDE,[1],106 MEQ/L
same,CHOLESTEROL,[1],66.33 mg/dL
same,CREATINE PHOSPHOKINASE,[1],609 u/L
same,CREATININE,[1],0.21 mg/dL
same,GLUCOSE,[1],159 mg/dL
same,LACTATE DEHYDROGENASE,[1],465 u/L
same,LIPASE,[1],9.67 u/L
same,PHOSPHORUS,[1],13.17 mg/dL
same,POTASSIUM,[1],6.21 MEQ/L
same,SODIUM,[1],144.2 MEQ/L
same,TOTAL BILIRUBIN,[1],0.13 mg/dL
same,TOTAL PROTEIN,[1],5.9 G/DL
same,URIC ACID,[1],1.77 mg/dL
same,ABSOLUTE BASOPHIL,[2],0 CELLS/uL
same,ABSOLUTE EOSINOPHIL,[2],0 CELLS/uL
same,ABSOLUTE LYMPHOCYTE,[2],13225.33 CELLS/uL
same,ABSOLUTE MONOCYTE,[2],319.33 CELLS/uL
same,ABSOLUTE SEGMENTED NEUTROPHIL,[2],888.67 CELLS/uL
same,BASOPHIL,[2],0%
same,EOSINOPHIL,[2],0%
same,ERYTHROCYTE COUNT,[2],5.61 x10E6/uL
same,HEMATOCRIT,[2],35.1%
same,HEMOGLOBIN,[2],13.27 G/DL
same,LEUKOCYTE COUNT,[2],14.43 x10E3/uL
same,LYMPHOCYTE,[2],91.33%
same,MEAN CORPUSCULAR HEMOGLOBIN,[2],23.63 pg
same,MEAN CORPUSCULAR HEMOGLOBIN CONCENTRATION,[2],37.83 G/DL
same,MEAN CORPUSCULAR VOLUME,[2],62.53 fL
same,MONOCYTE,[2],2.33%
same,NEUTROPHIL,[2],6.33%
same,NUCLEATED RED BLOOD CELLS,[2],0 /100WBC
same,PLATELET COUNT,[2],1433.33 x10E3/uL
same,ALANINE AMINOTRANSFERASE,[2],58.67 u/L
same,ALBUMIN,[2],3.97 G/DL
same,ALKALINE PHOSPHATASE,[2],399 u/L
same,ASPARTATE AMINOTRANSFERASE,[2],91.67 u/L
same,BLOOD UREA NITROGEN,[2],14.33 mg/dL
same,CARBON DIOXIDE,[2],25 mmol/L
same,CHLORIDE,[2],103.67 MEQ/L
same,CHOLESTEROL,[2],64.67 mg/dL
same,CREATINE PHOSPHOKINASE,[2],345 u/L
same,CREATININE,[2],0.23 mg/dL
same,GLUCOSE,[2],157.67 mg/dL
same,LACTATE DEHYDROGENASE,[2],414.67 u/L
same,LIPASE,[2],9 u/L
same,PHOSPHORUS,[2],11.17 mg/dL
same,POTASSIUM,[2],6.18 MEQ/L
same,SODIUM,[2],143.13 MEQ/L
same,TOTAL BILIRUBIN,[2],0.2 mg/dL
same,TOTAL PROTEIN,[2],5.33 G/DL
same,URIC ACID,[2],2.03 mg/dL
same,ABSOLUTE BASOPHIL,[3],0 CELLS/uL
same,ABSOLUTE EOSINOPHIL,[3],46.67 CELLS/uL
same,ABSOLUTE LYMPHOCYTE,[3],15630.33 CELLS/uL
same,ABSOLUTE MONOCYTE,[3],287 CELLS/uL
same,ABSOLUTE SEGMENTED NEUTROPHIL,[3],969.33 CELLS/uL
same,BASOPHIL,[3],0%
same,EOSINOPHIL,[3],0.33%
same,ERYTHROCYTE COUNT,[3],5.98 x10E6/uL
same,HEMATOCRIT,[3],36.77%
same,HEMOGLOBIN,[3],13.93 G/DL
same,LEUKOCYTE COUNT,[3],16.93 x10E3/uL
same,LYMPHOCYTE,[3],92.33%
same,MEAN CORPUSCULAR HEMOGLOBIN,[3],23.33 pg
same,MEAN CORPUSCULAR HEMOGLOBIN CONCENTRATION,[3],37.93 G/DL
same,MEAN CORPUSCULAR VOLUME,[3],61.5 fL
same,MONOCYTE,[3],1.67%
same,NEUTROPHIL,[3],5.67%
same,NUCLEATED RED BLOOD CELLS,[3],0 /100WBC
same,PLATELET COUNT,[3],1391 x10E3/uL
same,ALANINE AMINOTRANSFERASE,[3],69 u/L
same,ALBUMIN,[3],4.43 G/DL
same,ALKALINE PHOSPHATASE,[3],394.33 u/L
same,ASPARTATE AMINOTRANSFERASE,[3],96.33 u/L
same,BLOOD UREA NITROGEN,[3],16 mg/dL
same,CARBON DIOXIDE,[3],28 mmol/L
same,CHLORIDE,[3],106.33 MEQ/L
same,CHOLESTEROL,[3],63.33 mg/dL
same,CREATINE PHOSPHOKINASE,[3],1265 u/L
same,CREATININE,[3],0.3 mg/dL
same,GLUCOSE,[3],145.67 mg/dL
same,LACTATE DEHYDROGENASE,[3],187.33 u/L
same,LIPASE,[3],9.33 u/L
same,PHOSPHORUS,[3],12.2 mg/dL
same,POTASSIUM,[3],6.24 MEQ/L
same,SODIUM,[3],145.8 MEQ/L
same,TOTAL BILIRUBIN,[3],0.2 mg/dL
same,TOTAL PROTEIN,[3],6.07 G/DL
same,URIC ACID,[3],1.97 mg/dL
